Measured values reported in patent publication US10093713B2, “GIP-GLP-1 dual agonist compounds and methods” (priority 2013, dated 2018).
Read-outs that look alike come from different tables or passages of the source. *1 amine or outer side, *2 acyl side, *3 side chain or, on linkers, in order; H or OH if unused. Where a SMILES comes first, the peptide text is derived from it. Side-chain parts run from the residue outwards. [ ]: non-standard residue; d: D form. The star is where a group is joined. C18 diacid = O=C(O)CCCCCCCCCCCCCCCCC(=O)*; γGlu = O=C(O)[C@H](CCC(=O)[*:2])N[*:1]; AEEA = NCCOCCOCC(=O)O; Aib = CC(C)(N)C(=O)O

Columns and labels:
human GIP R = target: T1, human GIP R (Homo sapiens, UniProt P48546); assay: Human GIP receptor (GIP R) activity assay, cAMP induction (AlphaScreen) in HEK293 cells; type: cell-based; settings: read-out: hGIP-R cAMP EC50 average value
T1 construct: expressed in transfected cells
T1 sequence (P48546 22-466): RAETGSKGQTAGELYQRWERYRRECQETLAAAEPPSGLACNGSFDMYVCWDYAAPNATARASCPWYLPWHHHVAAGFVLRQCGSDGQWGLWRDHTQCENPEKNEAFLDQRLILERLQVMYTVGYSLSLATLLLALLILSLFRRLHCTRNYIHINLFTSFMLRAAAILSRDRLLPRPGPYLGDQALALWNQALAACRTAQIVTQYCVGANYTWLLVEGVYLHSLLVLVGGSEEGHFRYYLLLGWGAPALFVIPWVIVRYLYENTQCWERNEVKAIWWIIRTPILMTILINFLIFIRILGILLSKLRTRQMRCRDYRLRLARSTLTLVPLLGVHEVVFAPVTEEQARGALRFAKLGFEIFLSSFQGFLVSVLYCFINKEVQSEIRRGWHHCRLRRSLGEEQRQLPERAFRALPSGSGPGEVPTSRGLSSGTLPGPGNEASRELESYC
Method: (§1) Human GIP Receptor (GIP R) and GLP-1 Receptor (GLP-1 R) Activity Assay
(§2) In vitro effects of peptide conjugates of the invention were assessed by measuring the induction of cAMP following stimulation of the respective receptor by GIP, GLP1 or analogues of these, as outlined in the invention, using the AlphaSceen® cAMP kit from Perkin-Elmer according to instructions. Briefly, HEK293 cells expressing the human GIP R or GLP-1 R (stable cell lines generated through transfection of the cDNA for human GIP R or GLP-1 and selection of stable clones) were seeded at 30,000 cells/well in 96-well microtiter plates coated with 0.01% poly-L-lysine, and grown for 1 day in culture in 200 μl growth medium (DMEM, 10% FCS, Penicillin (100 IU/ml), Streptomycin (100 μg/ml)). On the day of analysis, growth medium was removed and the cells were washed once with […] Tyrode's buffer (Tyrode's Salts (9.6 g/l), 10 mM HEPES, pH 7.4). […] The Assay buffer was removed and cells are lysed in 80 μl Lysis buffer (0.1% w/v BSA, 5 mM HEPES, 0.3% v/v Tween-20) per well. From each well 10 μl lysed cells was transferred to a 384-well plate and mixed with 15 μl bead-mix (1 Unit/15 μl anti-cAMP Acceptor Beads, 1 Unit/15 μl Donor Beads, and 1 Unit/15 μl Biotinylated cAMP in Assay Buffer). The plates were mixed and incubated in the dark for an hour at room temperature before measuring using an Envision™ plate reader (Perkin-Elmer).
(§3) The resulting cAMP curves were plotted as absolute cAMP concentrations (nM) over log (test compound concentration) and analyzed using the curve fitting program XLfit.
(§4) Parameters calculated to describe both the potency as well as the agonistic activity of each test compound on the receptors were:
(§5) EC50, a concentration resulting in a half-maximal elevation of cAMP levels, reflecting the potency of the test compound.

human GLP-1 R = target: T2, human GLP-1 R (Homo sapiens, UniProt P43220); assay: Human GLP-1 receptor (GLP-1 R) activity assay, cAMP induction (AlphaScreen) in HEK293 cells; type: cell-based
T2 construct: expressed in transfected cells
T2 sequence (P43220 24-463): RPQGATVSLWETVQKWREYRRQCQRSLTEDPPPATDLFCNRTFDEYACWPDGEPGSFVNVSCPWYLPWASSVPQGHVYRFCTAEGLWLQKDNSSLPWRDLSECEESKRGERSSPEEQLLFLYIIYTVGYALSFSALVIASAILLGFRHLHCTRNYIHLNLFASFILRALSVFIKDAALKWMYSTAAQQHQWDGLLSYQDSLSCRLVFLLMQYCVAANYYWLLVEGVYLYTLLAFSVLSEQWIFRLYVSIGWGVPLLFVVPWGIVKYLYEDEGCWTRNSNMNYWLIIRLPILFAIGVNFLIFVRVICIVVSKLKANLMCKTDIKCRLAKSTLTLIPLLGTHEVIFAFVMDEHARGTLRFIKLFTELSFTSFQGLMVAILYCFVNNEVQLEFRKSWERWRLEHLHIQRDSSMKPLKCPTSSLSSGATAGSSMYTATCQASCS
Method: as §1, §2, §3, §4, §5

[1] = Table 2a, secondary assay study
[2] = Table 2a, secondary assay study, read-out: hGLP1-R cAMP EC50 average value
[3] = Table 2, HEK293 cells expressing human GIP R
[4] = Table 2, HEK293 cells expressing human GLP-1 R, read-out: hGLP1-R cAMP EC50 average value

Structure (SMILES)	EC50 (human GIP R; [1]) [pM]	EC50 (human GLP-1 R; [2]) [pM]	EC50 (human GIP R; [3]) [pM]	EC50 (human GLP-1 R; [4]) [pM]	EC50 (human GLP-1 R; Table 3, most comprehensive data, read-out: hGLP-1-R cAMP EC50 average value) [pM]	EC50 (human GIP R; Table 3, most comprehensive data) [pM]
CC[C@H](C)[C@H](NC(=O)[C@H](CO)NC(=O)[C@H](Cc1ccc(O)cc1)NC(=O)[C@H](CC(=O)O)NC(=O)[C@H](CO)NC(=O)[C@@H](NC(=O)[C@H](Cc1ccccc1)NC(=O)[C@@H](NC(=O)CNC(=O)[C@H](CCC(=O)O)NC(=O)C(C)(C)NC(=O)[C@@H](N)Cc1ccc(O)cc1)[C@@H](C)O)[C@@H](C)O)C(=O)N[C@@H](C)C(=O)N[C@@H](CC(C)C)C(=O)N[C@@H](CC(=O)O)C(=O)N[C@@H](CCCCN)C(=O)N[C@@H](CCCCNC(=O)COCCOCCNC(=O)COCCOCCNC(=O)CC[C@H](NC(=O)CCCCCCCCCCCCCCCCCCC(=O)O)C(=O)O)C(=O)N[C@@H](C)C(=O)N[C@@H](CCC(N)=O)C(=O)N[C@@H](CCCNC(=N)N)C(=O)N[C@@H](C)C(=O)N[C@@H](Cc1ccccc1)C(=O)N[C@H](C(=O)N[C@@H](CC(N)=O)C(=O)N[C@@H](Cc1c[nH]c2ccccc12)C(=O)N[C@@H](CC(C)C)C(=O)N[C@H](C(=O)N[C@@H](C)C(=O)NC(C)(C)C(=O)N[C@@H](CCCCN)C(=O)N1CCC[C@H]1C(=O)N[C@@H](CO)C(=O)N[C@@H](CO)C(=O)NCC(=O)N[C@@H](C)C(=O)N1CCC[C@H]1C(=O)N1CCC[C@H]1C(=O)N1CCC[C@H]1C(=O)N[C@@H](CO)C(N)=O)C(C)C)C(C)C [Compound 16]	8	9	–	–	–	–
CC[C@H](C)[C@H](NC(=O)[C@H](CO)NC(=O)[C@H](CC(C)C)NC(=O)[C@H](CC(=O)O)NC(=O)[C@H](CO)NC(=O)[C@@H](NC(=O)[C@H](Cc1ccccc1)NC(=O)[C@@H](NC(=O)CNC(=O)[C@H](CCC(=O)O)NC(=O)C(C)(C)NC(=O)[C@@H](N)Cc1ccc(O)cc1)[C@@H](C)O)[C@@H](C)O)C(=O)N[C@@H](C)C(=O)N[C@@H](CC(C)C)C(=O)N[C@@H](CCC(=O)O)C(=O)N[C@@H](CCCCN)C(=O)N[C@@H](CCCCNC(=O)COCCOCCNC(=O)COCCOCCNC(=O)CC[C@H](NC(=O)CCCCCCCCCCCCCCCCC(=O)O)C(=O)O)C(=O)N[C@@H](C)C(=O)N[C@@H](CCC(N)=O)C(=O)N[C@@H](CCCNC(=N)N)C(=O)N[C@@H](C)C(=O)N[C@@H](Cc1ccccc1)C(=O)N[C@H](C(=O)N[C@@H](CCC(=O)O)C(=O)N[C@@H](Cc1c[nH]c2ccccc12)C(=O)N[C@@H](CC(C)C)C(=O)N[C@@H](CC(C)C)C(=O)N[C@@H](C)C(=O)N[C@@H](CCC(N)=O)C(=O)N[C@@H](CCCCN)C(N)=O)C(C)C [Compound 17] (H-Y[Aib]EGTFTSDLSIALEKK([AEEA-AEEA-γGlu-C18 diacid])AQRAFVEWLLAQK-NH2)	–	–	11	6.2	6	–
CC[C@H](C)[C@H](NC(=O)[C@H](CO)NC(=O)[C@H](Cc1ccc(O)cc1)NC(=O)[C@H](CC(=O)O)NC(=O)[C@H](CO)NC(=O)[C@@H](NC(=O)[C@H](Cc1ccccc1)NC(=O)[C@@H](NC(=O)CNC(=O)[C@H](CCC(=O)O)NC(=O)C(C)(C)NC(=O)[C@@H](N)Cc1ccc(O)cc1)[C@@H](C)O)[C@@H](C)O)C(=O)N[C@@H](C)C(=O)N[C@@H](CC(C)C)C(=O)N[C@@H](CCC(=O)O)C(=O)N[C@@H](CCCCN)C(=O)N[C@@H](CCCCNC(=O)COCCOCCNC(=O)COCCOCCNC(=O)CC[C@H](NC(=O)CCCCCCCCCCCCCCCCC(=O)O)C(=O)O)C(=O)N[C@@H](C)C(=O)N[C@@H](CCC(N)=O)C(=O)N[C@@H](CCCNC(=N)N)C(=O)N[C@@H](C)C(=O)N[C@@H](Cc1ccccc1)C(=O)N[C@H](C(=O)N[C@@H](CCC(=O)O)C(=O)N[C@@H](Cc1c[nH]c2ccccc12)C(=O)N[C@@H](CC(C)C)C(=O)N[C@@H](CC(C)C)C(=O)N[C@@H](C)C(=O)N[C@@H](CCC(N)=O)C(=O)N[C@@H](CCCCN)C(N)=O)C(C)C [Compound 17] (H-Y[Aib]EGTFTSDYSIALEKK([AEEA-AEEA-γGlu-C18 diacid])AQRAFVEWLLAQK-NH2)	8	15	–	–	–	–
CC[C@H](C)[C@H](NC(=O)[C@H](CO)NC(=O)[C@H](CC(C)C)NC(=O)[C@H](CC(=O)O)NC(=O)[C@H](CO)NC(=O)[C@@H](NC(=O)[C@H](Cc1ccccc1)NC(=O)[C@@H](NC(=O)CNC(=O)[C@H](CCC(=O)O)NC(=O)C(C)(C)NC(=O)[C@@H](N)Cc1ccc(O)cc1)[C@@H](C)O)[C@@H](C)O)C(=O)N[C@@H](C)C(=O)N[C@@H](CC(C)C)C(=O)N[C@@H](CCC(=O)O)C(=O)N[C@@H](CCCCN)C(=O)N[C@@H](CCCCNC(=O)COCCOCCNC(=O)COCCOCCNC(=O)CC[C@H](NC(=O)CCCCCCCCCCCCCCCCC(=O)O)C(=O)O)C(=O)N[C@@H](C)C(=O)N[C@@H](CCC(N)=O)C(=O)N[C@@H](CCCNC(=N)N)C(=O)N[C@@H](C)C(=O)N[C@@H](Cc1ccccc1)C(=O)N[C@H](C(=O)N[C@@H](CCC(=O)O)C(=O)N[C@@H](Cc1c[nH]c2ccccc12)C(=O)N[C@@H](CC(C)C)C(=O)N[C@@H](CC(C)C)C(=O)N[C@@H](C)C(=O)N[C@@H](CCC(N)=O)C(=O)N[C@@H](CCCCN)C(N)=O)C(C)C [Compound 18] (H-Y[Aib]EGTFTSDLSIALEKK([AEEA-AEEA-γGlu-C18 diacid])AQRAFVEWLLAQK-NH2)	11	6	–	–	–	–
CC[C@H](C)[C@H](NC(=O)[C@H](CO)NC(=O)[C@H](Cc1ccc(O)cc1)NC(=O)[C@H](CC(=O)O)NC(=O)[C@H](CO)NC(=O)[C@@H](NC(=O)[C@H](Cc1ccccc1)NC(=O)[C@@H](NC(=O)CNC(=O)[C@H](CCC(=O)O)NC(=O)C(C)(C)NC(=O)[C@@H](N)Cc1ccc(O)cc1)[C@@H](C)O)[C@@H](C)O)C(=O)N[C@@H](Cc1ccc(O)cc1)C(=O)N[C@@H](CC(C)C)C(=O)N[C@@H](CCC(=O)O)C(=O)N[C@@H](CCCCN)C(=O)N[C@@H](CCCCNC(=O)COCCOCCNC(=O)COCCOCCNC(=O)CC[C@H](NC(=O)CCCCCCCCCCCCCCCCC(=O)O)C(=O)O)C(=O)N[C@@H](C)C(=O)N[C@@H](CCC(N)=O)C(=O)N[C@@H](CCCNC(=N)N)C(=O)N[C@@H](C)C(=O)N[C@@H](Cc1ccccc1)C(=O)N[C@H](C(=O)N[C@@H](CCC(=O)O)C(=O)N[C@@H](Cc1c[nH]c2ccccc12)C(=O)N[C@@H](CC(C)C)C(=O)N[C@@H](CC(C)C)C(=O)N[C@@H](CCCNC(=N)N)C(=O)N[C@@H](C)C(N)=O)C(C)C [Compound 18] (H-Y[Aib]EGTFTSDYSIYLEKK([AEEA-AEEA-γGlu-C18 diacid])AQRAFVEWLLRA-NH2)	–	–	14	22	–	–
CC[C@H](C)[C@H](NC(=O)[C@H](CO)NC(=O)[C@H](Cc1ccc(O)cc1)NC(=O)[C@H](CC(=O)O)NC(=O)[C@H](CO)NC(=O)[C@@H](NC(=O)[C@H](Cc1ccccc1)NC(=O)[C@@H](NC(=O)CNC(=O)[C@H](CCC(=O)O)NC(=O)C(C)(C)NC(=O)[C@@H](N)Cc1ccc(O)cc1)[C@@H](C)O)[C@@H](C)O)C(=O)N[C@@H](C)C(=O)N[C@@H](CC(C)C)C(=O)N[C@@H](CC(=O)O)C(=O)N[C@@H](CCCCN)C(=O)N[C@@H](CCCCNC(=O)COCCOCCNC(=O)COCCOCCNC(=O)CC[C@H](NC(=O)CCCCCCCCCCCCCCCCC(=O)O)C(=O)O)C(=O)N[C@@H](C)C(=O)N[C@@H](CCC(N)=O)C(=O)N[C@@H](CCCNC(=N)N)C(=O)N[C@@H](C)C(=O)N[C@@H](Cc1ccccc1)C(=O)N[C@H](C(=O)N[C@@H](CC(N)=O)C(=O)N[C@@H](Cc1c[nH]c2ccccc12)C(=O)N[C@@H](CC(C)C)C(=O)N[C@H](C(=O)N[C@@H](C)C(=O)NC(C)(C)C(=O)N[C@@H](CCCCN)C(N)=O)C(C)C)C(C)C [Compound 19] (H-Y[Aib]EGTFTSDYSIALDKK([AEEA-AEEA-γGlu-C18 diacid])AQRAFVNWLVA[Aib]K-NH2)	–	–	7.3	14	–	7
